Laboratory results reported in BindingDB's records for patent US10561657 (Centaurus Biophrama, 2020).

Target: Tyrosine-protein kinase JAK2 (Homo sapiens, UniProt O60674)
Test: Enzymatic Activity Assay
Method: A testing platform for kinase activity of JAK2 (wild type and V617F mutant type) was established based on Homogeneous Time-Resolved Fluorescence (HTRF) assay, and the activities of the compounds were tested using the platform. The compounds were subjected to three-fold gradient dilutions with 100% DMSO with a starting concentration of 1 mM (11 dilutions in total). 4 μL of each dilution was added to 96 μL of reaction buffer (50 mM HEPES, pH 7.4, 10 mM MgCl2, 1 mM EGTA, 0.01% Tween-20, 0.005% BAS, 2 mM DTT) and mixed homogeneously. […] The mixture was mixed homogeneously by centrifugation. […] The plate was incubated in the incubator for 1 hr, and then the fluorescence values were read on Envision (available from PerkinElmer). […] The enzymatic activity was representd by a ratio of the two readout at the two emission wavelengths.

Chain of Tyrosine-protein kinase JAK2 (O60674 whole entry): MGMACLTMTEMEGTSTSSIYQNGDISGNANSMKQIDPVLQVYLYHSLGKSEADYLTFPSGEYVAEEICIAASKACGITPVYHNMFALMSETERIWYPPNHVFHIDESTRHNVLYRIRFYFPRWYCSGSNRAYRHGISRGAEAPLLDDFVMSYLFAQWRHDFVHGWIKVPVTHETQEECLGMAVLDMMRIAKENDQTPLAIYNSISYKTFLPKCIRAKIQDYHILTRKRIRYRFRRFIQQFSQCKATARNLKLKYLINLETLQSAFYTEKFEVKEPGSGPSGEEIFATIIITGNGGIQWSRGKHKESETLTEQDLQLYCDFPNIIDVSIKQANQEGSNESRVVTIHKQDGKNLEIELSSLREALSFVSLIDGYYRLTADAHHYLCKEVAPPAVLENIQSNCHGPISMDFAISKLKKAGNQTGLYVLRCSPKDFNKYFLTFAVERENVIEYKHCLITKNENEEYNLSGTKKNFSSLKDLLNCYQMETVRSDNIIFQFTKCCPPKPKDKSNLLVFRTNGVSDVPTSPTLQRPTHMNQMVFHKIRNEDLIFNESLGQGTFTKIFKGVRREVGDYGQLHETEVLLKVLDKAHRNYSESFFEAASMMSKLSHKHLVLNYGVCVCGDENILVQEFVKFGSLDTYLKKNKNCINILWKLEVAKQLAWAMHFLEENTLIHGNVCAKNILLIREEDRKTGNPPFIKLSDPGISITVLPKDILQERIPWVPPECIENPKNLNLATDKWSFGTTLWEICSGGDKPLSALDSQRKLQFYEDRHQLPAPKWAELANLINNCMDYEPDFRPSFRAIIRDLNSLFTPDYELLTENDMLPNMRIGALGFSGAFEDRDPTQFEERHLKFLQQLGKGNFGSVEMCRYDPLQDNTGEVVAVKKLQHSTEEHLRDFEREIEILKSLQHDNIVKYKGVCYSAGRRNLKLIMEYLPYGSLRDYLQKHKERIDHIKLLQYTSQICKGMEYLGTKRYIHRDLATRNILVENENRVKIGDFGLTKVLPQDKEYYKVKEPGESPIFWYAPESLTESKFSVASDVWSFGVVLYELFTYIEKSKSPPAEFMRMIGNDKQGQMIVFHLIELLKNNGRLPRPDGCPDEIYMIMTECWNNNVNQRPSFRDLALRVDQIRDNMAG

SMILES: NC(=O)CC(C1CCCC1)n1cc(-c2ncnc3[nH]ccc23)c(N)n1 (configuration not stated) [US10561657, Example 2]
- IC50: < 100 nM

SMILES: CS(=O)(=O)Nc1nn(C(CC#N)C2CCCC2)cc1-c1ncnc2[nH]ccc12 (configuration not stated) [US10561657, Example 10]
- IC50: < 20 nM
